Source: ChEMBL document CHEMBL6121050 (J Med Chem, 2025)

Tests used:
[1] = Acute toxicity in Sprague-Dawley rat assessed as effect on white blood cell index at 100 to 400 mg/kg/day, po measured within 7 days; assay type: organism-based; details: in vivo, 168 h, dose 100-400 mg/kg/day, time 7 day
[2] = molecular target: Protein cereblon/Eukaryotic peptide chain release factor GTP-binding subunit ERF3A (Homo sapiens, UniProt Q96SW2+P15170); experiment: PROTAC activity at CRBN/GSPT1 in human Hs-578T cells assessed as induction of degradation of GSPT1 measured after 2 to 24 hrs by immunoblot analysis; assay type: cell-based; details: time 2-24 hrs
Protein cereblon/Eukaryotic peptide chain release factor GTP-binding subunit ERF3A, sequence (P15170 whole entry, looked up): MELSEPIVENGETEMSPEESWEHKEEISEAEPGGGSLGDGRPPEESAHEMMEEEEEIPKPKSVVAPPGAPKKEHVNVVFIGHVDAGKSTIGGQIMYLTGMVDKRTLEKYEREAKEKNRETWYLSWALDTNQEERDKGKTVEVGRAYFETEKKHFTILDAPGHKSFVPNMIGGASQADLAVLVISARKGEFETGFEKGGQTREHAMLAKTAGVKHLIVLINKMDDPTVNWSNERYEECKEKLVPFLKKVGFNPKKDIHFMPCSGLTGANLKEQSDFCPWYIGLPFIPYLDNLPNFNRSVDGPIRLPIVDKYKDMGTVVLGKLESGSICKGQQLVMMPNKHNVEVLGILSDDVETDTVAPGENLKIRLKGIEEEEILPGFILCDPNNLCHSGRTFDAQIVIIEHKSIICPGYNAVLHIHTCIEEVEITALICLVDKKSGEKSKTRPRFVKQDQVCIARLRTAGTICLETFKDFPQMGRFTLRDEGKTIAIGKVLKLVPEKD
Protein cereblon/Eukaryotic peptide chain release factor GTP-binding subunit ERF3A, sequence (Q96SW2 whole entry, looked up): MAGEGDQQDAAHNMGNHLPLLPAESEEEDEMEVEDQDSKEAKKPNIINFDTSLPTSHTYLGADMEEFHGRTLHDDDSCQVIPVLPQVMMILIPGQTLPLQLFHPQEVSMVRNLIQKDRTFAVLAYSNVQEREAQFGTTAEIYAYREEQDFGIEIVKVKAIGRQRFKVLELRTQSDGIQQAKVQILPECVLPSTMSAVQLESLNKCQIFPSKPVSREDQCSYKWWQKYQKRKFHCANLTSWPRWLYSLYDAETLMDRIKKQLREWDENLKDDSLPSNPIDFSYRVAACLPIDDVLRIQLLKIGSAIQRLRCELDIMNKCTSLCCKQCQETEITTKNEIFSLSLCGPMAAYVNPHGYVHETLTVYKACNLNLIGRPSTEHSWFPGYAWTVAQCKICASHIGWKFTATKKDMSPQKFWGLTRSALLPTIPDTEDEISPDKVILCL

[3] = Cmax in Beagle dog at 10 mg/kg, po; assay type: ADME, organism-based, Canis lupus familiaris; details: in vivo
[4] = Half life in Beagle dog at 2 mg/kg, iv; assay type: ADME, organism-based, Canis lupus familiaris; details: in vivo
[5] = Acute toxicity in Sprague-Dawley rat assessed maximum tolerated dose administered as po measured after 7 days; assay type: organism-based; details: in vivo, time 7 day
[6] = Metabolic stability in Beagle dog liver microsomes assessed as clearance; assay type: ADME, Canis lupus familiaris, Microsome; details: read-out: CLH
[7] = Metabolic stability in human liver microsomes assessed as half life; assay type: ADME, Microsome
[8] = Half life in Beagle dog at 10 mg/kg, po; assay type: ADME, organism-based, Canis lupus familiaris; details: in vivo
[9] = Toxicity in nude Balb/c mouse assessed as effect on body weight at 60 mg/kg, po administered once daily for 18 days; assay type: organism-based; details: in vivo, time 18 day
[10] = AUC last in Beagle dog at 2 mg/kg, iv; assay type: ADME, organism-based, Canis lupus familiaris; details: in vivo
[11] = test system: KG-1; experiment: Induction of apoptosis in human KG-1 cells assessed as late apoptotic cells at 50 nM incubated for 12 hrs by annexin V-FITC and PI staining based flow cytometry analysis (reference value: 5.70%); assay type: functional
[12] = Acute toxicity in male Sprague-Dawley rat assessed as effect on animal behaviour at 400 mg/kg/day, po measured within 7 days; assay type: organism-based; details: in vivo, 168 h, time 7 day
[13] = Oral bioavailability in Sprague-Dawley rat at 10 mg/kg; assay type: ADME, organism-based; details: in vivo
[14] = Plasma protein binding (unknown origin); assay type: ADME, cell-free; details: read-out: PPB (converted)

O=C1CCC(N2Cc3cc(CNC(=O)C4=Cc5cc(OC(F)(F)F)ccc5OC4)ccc3C2=O)C(=O)N1 (centres undefined)
Activity [1]: Non-toxic | Activity [2]: Dose-dependent-effect | Cmax [3]: 247 ng/mL | half-life [4]: 1.01 h | MTD at 168 h [5]: 15 mg/kg | microsomal CLint [6]: 1.5 µL/min/mg | half-life [7]: > 6.19 h | half-life [8]: 4.58 h | Activity [9]: Non-toxic | AUC(0-t) [10]: 2170 ng·h/mL | Activity [11]: 13.7% | Activity [12]: Non-toxic | bioavailability [13]: 22.9% | fraction unbound [14]: 0.0097
